The values that follow come from patent EP4775574A1, “FURAN RING-CONTAINING COMPOUND, PHARMACEUTICAL COMPOSITION THEREOF, AND USE THEREOF” (Wuhan Xirui Pharmaceutical Technology Co., Ltd, priority 2023, dated 2025).

Data set [1] addresses T1, hNav1.8 (Homo sapiens, UniProt Q9Y5Y9).
T1 construct: host or cells: HEK293
Put plainly: Manual patch-clamp IC50 on hNav1.8 channel current (HEK293 hNav1.8/β3). The format is cell-based. As to conditions: HEK293 stably expressing hNav1.8/β3, n = 2, read-out: Inhibitory activity (IC50). The method, then: This experiment was performed by detecting the influence of 5 concentrations of the compound or a single point or two concentration points on the hNav1.8 channel current, the dose-response curve of the compound was obtained, and the IC50 was calculated. This experiment was conducted to include two parallel sample determinations.
• 1) Cells: The HEK293 cell line that stably expressed the hNav1.8/β3 ion channel was prepared in-house by the Biology Department of Pharmaron (Beijing) Co., Ltd. (The lentiviral vectors that respectively expressed human Nav1.8 and β3 were transduced into HEK293, and it was prepared after screening. Specific reference: Proc Natl Acad Sci U S A. 2022 Jul 26;119(30):e2208211119. doi: 10.1073/pnas.2208211119. and the Cell Lines / BSYS CHO NaV1.8/β3 Cell Line manual.). The cell line was cultured in a medium containing 90% DMEM, 10% fetal bovine serum, 100 U/mL penicillin-streptomycin solution, 0.75 µg/mL puromycin, and 100 µg/mL hygromycin. When the cell density had grown to 40% to 80% of the bottom area of the culture dish, digestion was performed with trypsin, and passage was carried out three times per week. […]

Data set [2] can be described thus: Pharmacokinetic determination in KM mice. The format is in vivo. On the procedure: Using KM mice as test animals, the pharmacokinetic behavior of the compounds in the examples in mouse plasma after administration by gavage at a dose of 10 mg/kg or by intravenous injection at a dose of 1 mg/kg was studied.
Male SPF-grade KM mice, with body weight (20 ± 2) g.
Drug preparation for the intragastric administration group: The drug concentration was prepared as 1 mg/mL, and the preparation solvent was Tween80 + 0.5% MC (v/v 1:99).
Drug preparation for the intravenous administration group: The drug concentration was prepared as 0.2 mg/mL, and the preparation solvent was 5% DMA + 5% Solutol HS-15 + 90% normal saline.
Intragastric administration group: The administration dose was 10 mg/kg, and the administration volume was 10 mL/kg.
Intravenous administration group: The administration dose was 1 mg/kg, and the administration volume was 5 mL/kg.
Intragastric administration: Blood was collected from mice before administration (0 h) and after administration at 0, 0.25 h, 0.5 h, 1 h, 2 h, 4 h, 6 h, 8 h, 10 h, and 24 h. Intravenous injection: Blood was collected before administration (0 h) and after administration at 5, 15, 30 min, 1, 2, 4, 6, 8, and 24 h.
Blood, approximately 0.1 mL, was collected by retro-orbital puncture and placed into EDTA-K2 anticoagulant tubes with labels. After blood collection, the tubes were gently and completely inverted three times to mix with the anticoagulant. The samples were then immediately placed in an ice-water bath and centrifuged at 4500 rpm for 10 min at 4°C. After centrifugation, the plasma was promptly aliquoted into EP tubes with corresponding labels and stored in a -80°C freezer.
After administration, 20 µL of mouse plasma was taken and placed into a 96-deep-well plate pre-filled with 20 µL of internal standard working solution. Methanol (400 µL) as the precipitating agent was added, vortexed for 10 min, and centrifuged at 4000 rpm for 15 min. A supernatant of 200 µL was transferred into another 96-deep-well plate pre-filled with 200 µL of ultrapure water, vortexed for 5 min, and centrifuged at 4000 rpm for 3 min. A supernatant of 5 µL was taken for LC-MS/MS analysis of plasma drug concentration.
The main pharmacokinetic parameters were calculated by WinNonlin 7.0, and the pharmacokinetic experimental results of mice are shown in Table 5 below. Table 5: Pharmacokinetic experimental results of mice

The mark [3] stands for this setting: male, KM, mouse, in vivo, iv, 1 mg/kg.
[4] abbreviates: male, KM, mouse, in vivo, po, 10 mg/kg.

By IC50 is commonly meant the concentration that inhibits the measured activity by half. Broadly, the bioavailability is the share of a dose that reaches the circulation, judged against a reference dose that is usually intravenous. By Tmax is commonly meant the time from dosing to the highest level. One may read the Cmax as the peak of the concentration-time curve.

Where two headings read alike, the source gives them in different places.

T1 sequence (Q9Y5Y9 whole entry): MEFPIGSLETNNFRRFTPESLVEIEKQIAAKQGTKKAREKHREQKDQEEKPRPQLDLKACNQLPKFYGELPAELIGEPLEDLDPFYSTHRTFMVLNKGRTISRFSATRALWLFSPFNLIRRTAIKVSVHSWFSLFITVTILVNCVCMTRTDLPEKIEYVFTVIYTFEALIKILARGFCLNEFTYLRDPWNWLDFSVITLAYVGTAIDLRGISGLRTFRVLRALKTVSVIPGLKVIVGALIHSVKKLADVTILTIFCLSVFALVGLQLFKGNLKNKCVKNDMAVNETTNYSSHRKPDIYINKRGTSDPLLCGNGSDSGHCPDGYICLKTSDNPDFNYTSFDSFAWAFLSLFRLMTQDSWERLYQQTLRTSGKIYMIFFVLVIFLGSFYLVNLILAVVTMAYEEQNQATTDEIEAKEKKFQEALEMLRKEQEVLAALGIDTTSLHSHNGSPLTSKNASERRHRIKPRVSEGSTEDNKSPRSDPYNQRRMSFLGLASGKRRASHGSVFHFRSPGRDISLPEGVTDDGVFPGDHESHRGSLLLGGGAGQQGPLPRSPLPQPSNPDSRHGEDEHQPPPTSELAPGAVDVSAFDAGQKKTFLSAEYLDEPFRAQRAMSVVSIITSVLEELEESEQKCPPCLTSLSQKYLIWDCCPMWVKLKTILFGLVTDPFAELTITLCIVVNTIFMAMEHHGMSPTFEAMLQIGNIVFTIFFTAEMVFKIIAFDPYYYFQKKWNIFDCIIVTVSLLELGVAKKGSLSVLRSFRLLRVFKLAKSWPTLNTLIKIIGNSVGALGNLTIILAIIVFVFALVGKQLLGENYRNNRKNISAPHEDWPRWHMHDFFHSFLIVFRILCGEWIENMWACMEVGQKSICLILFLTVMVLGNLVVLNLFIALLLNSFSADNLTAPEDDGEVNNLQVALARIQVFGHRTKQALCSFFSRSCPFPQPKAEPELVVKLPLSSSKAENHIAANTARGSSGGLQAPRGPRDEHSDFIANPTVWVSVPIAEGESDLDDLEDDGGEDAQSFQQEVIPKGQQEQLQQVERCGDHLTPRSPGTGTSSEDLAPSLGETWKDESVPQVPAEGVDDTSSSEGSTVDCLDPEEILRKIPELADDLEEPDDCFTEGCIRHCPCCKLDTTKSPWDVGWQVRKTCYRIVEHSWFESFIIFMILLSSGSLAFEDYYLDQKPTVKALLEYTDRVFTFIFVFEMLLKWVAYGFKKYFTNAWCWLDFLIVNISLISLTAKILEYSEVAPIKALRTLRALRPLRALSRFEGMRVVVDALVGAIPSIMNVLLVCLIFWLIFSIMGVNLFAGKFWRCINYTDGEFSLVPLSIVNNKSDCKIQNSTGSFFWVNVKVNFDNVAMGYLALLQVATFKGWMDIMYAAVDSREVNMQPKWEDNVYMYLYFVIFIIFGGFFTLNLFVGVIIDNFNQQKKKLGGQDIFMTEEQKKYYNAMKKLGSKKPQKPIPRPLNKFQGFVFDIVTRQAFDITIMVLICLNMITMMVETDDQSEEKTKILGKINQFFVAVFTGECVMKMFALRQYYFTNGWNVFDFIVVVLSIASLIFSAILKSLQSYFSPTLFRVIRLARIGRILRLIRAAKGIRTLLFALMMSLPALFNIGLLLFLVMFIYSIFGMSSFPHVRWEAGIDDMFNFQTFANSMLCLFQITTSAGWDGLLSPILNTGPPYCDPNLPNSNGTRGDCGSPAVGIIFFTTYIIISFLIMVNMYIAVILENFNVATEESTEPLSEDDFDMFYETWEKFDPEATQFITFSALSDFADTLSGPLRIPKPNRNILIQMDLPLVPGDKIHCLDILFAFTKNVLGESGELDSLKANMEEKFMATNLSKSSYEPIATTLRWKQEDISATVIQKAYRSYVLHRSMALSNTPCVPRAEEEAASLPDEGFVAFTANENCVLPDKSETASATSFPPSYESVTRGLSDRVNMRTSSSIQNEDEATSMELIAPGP
T1 sequence (Q9NY72 25-215 partner limits assumed): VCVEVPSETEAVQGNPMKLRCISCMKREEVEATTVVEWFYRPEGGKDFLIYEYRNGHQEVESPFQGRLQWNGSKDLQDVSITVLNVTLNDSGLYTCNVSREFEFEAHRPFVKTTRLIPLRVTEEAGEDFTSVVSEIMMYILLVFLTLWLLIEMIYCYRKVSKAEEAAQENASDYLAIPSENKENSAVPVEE

`C[C@H]1[C@@H](c2ccc(F)c(F)c2OC2COC2)[C@H](C(=O)Nc2ccc(F)c(C(=N)NO)c2)O[C@@]1(C)C(F)(F)F` [Example 11]: in data set [1], the IC50 turned out to be 0.229 nM. In addition, the “Peak concentration Cmax/C0” value in data set [2] (KM mice, i.g. 10 mg/kg) is 3413.33 ng/mL; in data set [2] (KM mice, i.v. 1 mg/kg) it was 612.43 ng/mL. In addition, the Vd in data set [2] (mouse, in vivo, iv, KM mice, i.v. 1 mg/kg, read-out: Apparent distribution Vss) is 1.4 L/kg. Further, the AUC(0-t) in data set [2] (mouse, in vivo, iv, KM mice, i.v. 1 mg/kg, read-out: Area under the curve AUC0-t) is 1060 ng·h/mL; in data set [2] (mouse, in vivo, po, KM mice, i.g. 10 mg/kg, read-out: Area under the curve AUC0-t), 7540 ng·h/mL. Also, the half-life in data set [2] (mouse, in vivo, iv, KM mice, i.v. 1 mg/kg, read-out: Half-life t1/2 (converted)) is 1.44 h; in data set [2] (mouse, in vivo, po, KM mice, i.g. 10 mg/kg, read-out: Half-life t1/2 (converted)), 1.37 h. For the same molecule, the bioavailability in data set [2] (mouse, in vivo, po, KM mice, i.g. 10 mg/kg vs i.v. 1 mg/kg, read-out: Bioavailability) came to 71.4%. In addition, in data set [2] (mouse, in vivo, po, KM mice, i.g. 10 mg/kg, read-out: Time to peak Tmax), the Tmax came to 0.25 h.

For `COc1c([C@H]2[C@H](C(=O)Nc3ccnc(C(N)=O)c3)O[C@@](C)(C(F)(F)F)[C@H]2C)ccc(F)c1F` [Reference compound, reference compound], the half-maximal inhibitory concentration (IC50) in data set [1] turned out to be 0.297 nM. The molecule further had a bioavailability in data set [2] (male, KM, mouse, in vivo) of 44.2%. In data set [2] (setting [3]), the AUC(0-t) is 1020 ng·h/mL, the “Clearance CL/F” value is 15.222 mL/min/kg, the Cmax came to 621 ng/mL and the Vd was 2.48 L/kg. Also, the half-life in data set [2] (setting [3]) was 1.99 h. In data set [2] (setting [4]), the AUC(0-t) came out at 4530 ng·h/mL, the concentration peaked (Cmax) at 1330 ng/mL, the Tmax came out at 1 h and the half-life was 1.97 h.
